This is an account of results in patent US8012998B2, “Pyrrolidine aryl-ether as NK-3 receptor antagonists” (Hoffmann—LA Roche Inc., priority 2007, dated 2011).

The assay has as its target T1, human NK3 receptor (Homo sapiens, UniProt P29371).
T1 construct: expressed in transfected cells; host or cells: HEK293 cells (transient expression), membrane preparation
T1 sequence (P29371 1-465): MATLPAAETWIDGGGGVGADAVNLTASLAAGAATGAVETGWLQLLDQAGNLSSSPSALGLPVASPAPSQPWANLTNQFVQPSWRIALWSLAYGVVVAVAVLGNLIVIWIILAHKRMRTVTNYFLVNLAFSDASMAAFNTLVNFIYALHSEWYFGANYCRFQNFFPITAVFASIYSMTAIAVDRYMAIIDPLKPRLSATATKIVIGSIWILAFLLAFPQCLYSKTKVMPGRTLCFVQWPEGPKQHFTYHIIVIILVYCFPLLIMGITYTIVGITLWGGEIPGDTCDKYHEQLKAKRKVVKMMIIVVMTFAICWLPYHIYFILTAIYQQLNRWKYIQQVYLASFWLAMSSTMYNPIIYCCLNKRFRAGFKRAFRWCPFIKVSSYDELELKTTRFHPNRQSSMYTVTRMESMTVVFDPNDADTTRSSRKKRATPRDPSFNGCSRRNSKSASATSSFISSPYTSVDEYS
The experiment in a line: [3H]SR142801 competition binding assay (hNK3 receptor binding). The settings on record: [3H]SR142801 radioligand; membranes from HEK293 cells transiently expressing recombinant human NK3 receptor; Ki by Cheng-Prussoff; read-out: KiNK3 h. How it is done: [^3H]SR^142801 Competition Binding Assay
hNK3 receptor binding experiment were performed using [^3H]SR^142801 (Catalog No. TRK1035, specific activity: 74.0 Ci/mmol, Amersham, GE Healthcare UK limited, Buckinghamshire, UK) and membrane isolated from HEK293 cells transiently expressing recombinant human NK3 receptor. After thawing, the membrane homogenates were centrifuged at 48,000×g for 10 min at 4° C., the pellets were resuspended in the 50 mM Tris-HCl, 4 mM MnCl2, 1 μM phosphoramidon, 0.1% BSA binding buffer at pH 7.4 to a final assay concentration of 5 μg protein/well. […] At the end of the incubation, membranes were filtered onto unitfilter (96-well white microplate with bonded GF/C filter preincubated 1 h in 0.3% PEI +0.3% BSA, Packard BioScience, Meriden, Conn.) with a Filtermate 196 harvester (Packard BioScience) and washed 4 times with ice-cold 50 mM Tris-HCl, pH 7.4 buffer. Nonspecific binding was measured in the presence of 10 μM SB222200 for both radioligands. The radioactivity on the filter was counted (5 min) on a Packard Top-count microplate scintillation counter with quenching correction after addition of 45 μl of microscint 40 (Canberra Packard S.A., Zutrich, Switzerland) and shaking for 1 h. Inhibition curves were fitted according to the Hill equation: y=100/(1+(x/IC50)^nH), where nH=slope factor using Excel-fit 4 software (Microsoft). IC50 values were derived from the inhibition curve and the affinity constant (Ki) values were calculated using the Cheng-Prussoff equation Ki=IC50/(1+[L]/KD) where [L] is the concentration of radioligand and KD is its dissociation constant at the receptor, derived from the saturation isotherm. All experiments were performed in duplicate and the mean ± standard error (SEM) of the individual Ki values was calculated.

In the case of `Cc1cccc(C(=O)N2C[C@H]([C@H](C)Oc3ccc(C#N)cn3)[C@@H](c3ccc(Cl)c(Cl)c3)C2)n1` (racemic) [Example 93, 6-{(SR)-1-[(3RS,4SR)-4-(3,4-Dichloro-phenyl)-1-(6-methyl-pyridine-2-carbonyl)-pyrrolidin-3-yl]-ethoxy}-nicotinonitrile], the Ki came out at 64.6 nM.

On to `Cc1cnc(C(=O)N2C[C@H]([C@H](C)Oc3ccc(C#N)cn3)[C@@H](c3ccc(Cl)c(Cl)c3)C2)cn1` (racemic) [Example 97, 6-{(SR)-1-[(3RS,4SR)-4-(3,4-Dichloro-phenyl)-1-(5-methyl-pyrazine-2-carbonyl)-pyrrolidin-3-yl]-ethoxy}-nicotinonitrile], for which the Ki amounted to 67.5 nM.

Turning to `COc1ccc(C(=O)N2C[C@@H]([C@@H](C)Oc3ccc(F)cn3)[C@H](c3ccc(Cl)c(Cl)c3)C2)cn1` (racemic) [Example 26, {(3RS,4SR)-3-(3,4-Dichloro-phenyl)-4-[(RS)-1-(5-fluoro-pyridin-2-yloxy)-ethyl]-pyrrolidin-1-yl}-(6-methoxy-pyridin-3-yl)-methanone], the Ki stood at 66 nM.

`C[C@@H](Oc1ccc(Cl)cn1)[C@@H]1CN(C(=O)c2ccc(C#N)cc2)C[C@H]1c1ccc(Cl)c(Cl)c1` (racemic) [Example 10, 4-[(3SR,4RS)-3-[(RS)-1-(5-Chloro-pyridin-2-yloxy)-ethyl]-4-(3,4-dichloro-phenyl)-pyrrolidine-1-carbonyl]-benzonitrile]: the Ki stood at 3.2 nM.

With `C[C@@H](Oc1ccc(Cl)cn1)[C@@H]1CN(C(=O)c2ccc(C#N)cc2)C[C@H]1c1ccc(Cl)c(Cl)c1` (racemic) [Example 49, 4-[(3SR,4RS)-3-[(RS)-1-(5-Chloro-pyridin-2-yloxy)-ethyl]-4-(3,4-dichloro-phenyl)-pyrrolidin-1-carbonyl]-benzonitrile], the Ki worked out at 22.3 nM.

Consider `C[C@H](Oc1ccc(C#N)cn1)[C@H]1CN(C(=O)c2cnc(C(C)(C)C)nc2)C[C@@H]1c1ccc(Cl)c(Cl)c1` (racemic) [Example 98, 6-{(SR)-1-[(3RS,4SR)-1-(2-tert-Butyl-pyrimidine-5-carbonyl)-4-(3,4-dichloro-phenyl)-pyrrolidin-3-yl]-ethoxy}-nicotinonitrile], for which the Ki stood at 45.7 nM.

As to `C[C@H](Oc1ccc(C#N)cn1)[C@H]1CN(C(=O)c2cnc(C3CC3)nc2)C[C@@H]1c1ccc(Cl)c(Cl)c1` [Example 84, 6-{(S)-1[-(3R,4S)-1-(2-Cyclopropyl-pyrimidine-5-carbonyl)-4-(3,4-dichloro-phenyl)-pyrrolidin-3-yl]-ethoxy}-nicotinonitrile], the Ki is 22 nM.

`Cc1ncc(C(=O)N2CC(C(C)Oc3ccc(Cl)cn3)[C@H](c3ccc(Cl)c(Cl)c3)C2)cn1` (stereo in doubt) [Example 41, [(3S,4R)-3-[(R)-1-(5-Chloro-pyridin-2-yloxy)-ethyl]-4-(3,4-dichloro-phenyl)-pyrrolidin-1-yl]-(2-methyl-pyrimidin-5-yl)-methanone]: the Ki was 66.4 nM.

In the case of `Cc1ncc(C(=O)N2C[C@H]([C@H](CO)Oc3ccc(Cl)cn3)[C@@H](c3ccc(Cl)c(Cl)c3)C2)cn1` (racemic) [Example 87, [(3RS,4SR)-3-[(RS)-1-(5-Chloro-pyridin-2-yloxy)-2-hydroxy-ethyl]-4-(3,4-dichloro-phenyl)-pyrrolidin-1-yl]-(2-methyl-pyrimidin-5-yl)-methanone], the Ki was 56.2 nM.

On to `C[C@H](Oc1ccc(C(F)(F)F)cn1)[C@H]1CN(C(=O)c2ccc(Cl)nc2)C[C@@H]1c1ccc(Cl)c(Cl)c1` (racemic) [Example 81, (6-Chloro-pyridin-3-yl)-{(3SR,4RS)-3-(3,4-dichloro-phenyl)-4-[(SR)-1-(5-trifluoromethyl-pyridin-2-yloxy)-ethyl]-pyrrolidin-1-yl}-methanone], for which the Ki is 4.8 nM.

For the compound `COc1cc(C(=O)N2C[C@@H]([C@@H](C)Oc3ccc(Cl)cn3)[C@H](c3ccc(Cl)c(Cl)c3)C2)ccn1` (racemic) [Example 18, [(3SR,4RS)-3-[(RS)-1-(5-Chloro-pyridin-2-yloxy)-ethyl]-4-(3,4-dichloro-phenyl)-pyrrolidin-1-yl]-(2-methoxy-pyridin-4-yl)-methanone], the Ki came to 22.7 nM.

For the compound `C[C@H](Oc1ccc(C#N)cn1)[C@H]1CN(C(=O)c2ccnnc2)C[C@@H]1c1ccc(Cl)c(Cl)c1` (racemic) [Example 77, 6-{(SR)-1-[(3RS,4SR)-4-(3,4-Dichloro-phenyl)-1-(pyridazine-4-carbonyl)-pyrrolidin-3-yl]-ethoxy}-nicotinonitrile], the Ki is 32.8 nM.

With `C[C@H](Oc1ccc(C#N)cn1)[C@H]1CN(C(=O)c2ccc(S(=O)(=O)N(C)C)nc2)C[C@@H]1c1ccc(Cl)c(Cl)c1` (racemic) [Example 58, 5-[(3RS,4SR)-3-[(SR)-1-(5-Cyano-pyridin-2-yloxy)-ethyl]-4-(3,4-dichloro-phenyl)-pyrrolidine-1-carbonyl]-pyridine-2-sulfonic acid dimethylamide], the Ki is 0.5 nM.

As to `C[C@@H](Oc1ccc(Cl)cn1)[C@@H]1CN(C(=O)c2cnc(C#N)nc2)C[C@H]1c1ccc(Cl)c(Cl)c1` [Example 50, 5-[(3S,4R)-3-[(R)-1-(5-Chloro-pyridin-2-yloxy)-ethyl]-4-(3,4-dichloro-phenyl)-pyrrolidine-1-carbonyl]-pyrimidine-2-carbonitrile], the Ki was determined as 4.6 nM.

In the case of `Cc1ncc(C(=O)N2C[C@H]([C@H](C)Oc3ccc(Cl)cn3)[C@@H](c3ccc(Cl)cc3)C2)cn1` [Example 109, {(3S,4R)-3-(4-Chloro-phenyl)-4-[(S)-1-(5-chloro-pyridin-2-yloxy)-ethyl]-pyrrolidin-1-yl}-(2-methyl-pyrimidin-5-yl)-methanone], the Ki is 24.1 nM.

As to `C[C@H](Oc1ccc(C#N)cn1)[C@H]1CN(C(=O)c2ccc(-n3ccnc3)nc2)C[C@@H]1c1ccc(Cl)c(Cl)c1` (racemic) [Example 71, 6-{(SR)-1-[(3RS,4SR)-4-(3,4-Dichloro-phenyl)-1-(6-imidazol-1-yl-pyridine-3-carbonyl)-pyrrolidin-3-yl]-ethoxy}-nicotinonitrile], the Ki came out at 6.1 nM.

As to `Cc1cc(C(=O)N2C[C@H]([C@H](C)Oc3ccc(Cl)cn3)[C@@H](c3ccc(F)c(F)c3)C2)c(C)nn1` [Example 113, [(3R,4S)-3-[(S)-1-(5-Chloro-pyridin-2-yloxy)-ethyl]-4-(3,4-difluoro-phenyl)-pyrrolidin-1-yl]-(3,6-dimethyl-pyridazin-4-yl)-methanone], the Ki worked out at 17.7 nM.

Regarding `COc1ncc(C(=O)N2C[C@H]([C@H](C)Oc3ccc(C#N)cn3)[C@@H](c3ccc(Cl)c(Cl)c3)C2)cn1` (racemic) [Example 70, 6-{(SR)-1-[(3RS,4SR)-4-(3,4-Dichloro-phenyl)-1-(2-methoxy-pyrimidine-5-carbonyl)-pyrrolidin-3-yl]-ethoxy}-nicotinonitrile], the Ki worked out at 34.9 nM.

In the case of `Cc1cncc(C(=O)N2C[C@H]([C@H](C)Oc3ccc(C#N)cn3)[C@@H](c3ccc(Cl)c(Cl)c3)C2)c1` (racemic) [Example 73, 6-{(SR)-1-[(3RS,4SR)-4-(3,4-Dichloro-phenyl)-1-(5-methyl-pyridine-3-carbonyl)-pyrrolidin-3-yl]-ethoxy}-nicotinonitrile], the Ki turned out to be 6.8 nM.

In the case of `Cc1cc(C(=O)N2C[C@H]([C@H](C)Oc3ccc(C#N)cn3)[C@@H](c3ccc(Cl)cc3)C2)cnn1` [Example 111, 6-{(S)-1-[(3R,4S)-4-(4-Chloro-phenyl)-1-(6-methyl-pyridazine-4-carbonyl)-pyrrolidin-3-yl]-ethoxy}-nicotinonitrile], the Ki is 3.7 nM.

`C[C@H](Oc1ccc(C#N)cn1)[C@H]1CN(C(=O)c2ccc(OCC(F)(F)F)nc2)C[C@@H]1c1ccc(Cl)c(Cl)c1` (racemic) [Example 76, 6-((SR)-1-{(3RS,4SR)-4-(3,4-Dichloro-phenyl)-1-[6-(2,2,2-trifluoro-ethoxy)-pyridine-3-carbonyl]-pyrrolidin-3-yl}-ethoxy)-nicotinonitrile]: the Ki was 3.5 nM.
